This note sets out measurements from ChEMBL document CHEMBL2218064, “Structure-activity relationship data for chemical series of antagonists of the P2X7 receptor (Supplementary Bioactivity Data for publication CHEMBL1157114)”.

Each structure is given as a SMILES string.

The target in this experiment is T1, P2X purinoceptor 7 (Homo sapiens, UniProt Q99572).
T1 sequence (Q99572 whole entry): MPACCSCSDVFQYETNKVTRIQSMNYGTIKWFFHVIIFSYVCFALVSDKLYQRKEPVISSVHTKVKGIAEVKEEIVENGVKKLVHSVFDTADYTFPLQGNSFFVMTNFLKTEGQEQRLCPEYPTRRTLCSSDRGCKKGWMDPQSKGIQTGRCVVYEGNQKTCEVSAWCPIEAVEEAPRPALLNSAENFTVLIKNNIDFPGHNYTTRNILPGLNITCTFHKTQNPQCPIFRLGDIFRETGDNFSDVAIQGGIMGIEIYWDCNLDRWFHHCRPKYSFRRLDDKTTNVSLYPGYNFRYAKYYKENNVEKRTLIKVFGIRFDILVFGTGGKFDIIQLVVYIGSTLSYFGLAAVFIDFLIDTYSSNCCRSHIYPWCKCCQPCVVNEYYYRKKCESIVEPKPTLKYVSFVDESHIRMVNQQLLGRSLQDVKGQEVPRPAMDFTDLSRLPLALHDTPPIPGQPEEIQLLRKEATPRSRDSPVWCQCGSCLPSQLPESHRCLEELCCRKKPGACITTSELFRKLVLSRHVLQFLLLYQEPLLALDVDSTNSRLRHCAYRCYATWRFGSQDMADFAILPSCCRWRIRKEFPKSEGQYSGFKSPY
As to the kind of experiment: SUPPLEMENTARY: Inhibition of human P2X7 receptor assessed as inhibition of ethidium bromide accumulation. Same assay as CHEMBL1103860.
A word on the IC50: it is the concentration that inhibits the measured activity by half. Regarding `CCN1C(=O)CC[C@@H]1C(=O)NCc1c(Cl)cccc1Cl`, the half-inhibitory concentration (IC50) is 0.631 µM. On to `CC(C)CN1CC(C(=O)NCc2ccc(Cl)cc2Cl)CC1=O` (centres undefined), for which the IC50 is 0.0794 µM. As to `CN1C(=O)CCC1(C)C(=O)NCc1ccc(Cl)cc1Cl` (centres undefined), the 50% inhibitory concentration (IC50) was 0.2 µM. Then `CCN1C(=O)CC[C@@H]1C(=O)NCc1ccc(Cl)c(C(F)(F)F)c1`, with 0.316 µM. Then `CCN1C(=O)CC[C@@H]1C(=O)NCc1c(C)cccc1Cl`, with 0.501 µM; and `Cc1cc(Cl)ccc1CNC(=O)[C@@H]1CCC(=O)N1C`, with 0.0251 µM; and `CN1C(=O)CC[C@H]1C(=O)NCc1ccc(F)cc1C(F)(F)F`, with 0.1 µM. Turning to `CN1C(=O)CC[C@H]1C(=O)NCc1cccc(Cl)c1Cl`, the IC50 was 0.0158 µM. Then `CN1C(=O)CC[C@H]1C(=O)NCc1c(Cl)cccc1Cl`, with 0.126 µM; and `Cc1c(Cl)cccc1CNC(=O)[C@@H]1CCC(=O)N1C`, with 0.0158 µM; and `CN1C(=O)CC[C@H]1C(=O)NCc1cccc(C(F)(F)F)c1F`, with 0.0251 µM. On to `CN1C(=O)CC[C@H]1C(=O)NCc1cccc(Cl)c1F`, for which the half-inhibitory concentration (IC50) is 0.126 µM. For `CCN1C(=O)c2ccccc2C1C(=O)NCc1ccc(Cl)cc1Cl` (centres undefined), the concentration for half-maximal inhibition (IC50) is 0.398 µM. In the case of `CCN1C(=O)c2ccccc2C1C(=O)NCc1cccc(C(F)(F)F)c1Cl` (centres undefined) it was 0.0794 µM; in that of `CN1C(=O)c2ccccc2C1C(=O)NCc1ccc(Cl)cc1Cl` (centres undefined), 0.126 µM. Then `CN1C(=O)c2ccccc2C1C(=O)NCc1ccc(F)cc1Cl` (centres undefined), with 0.316 µM. For the molecule `CN1C(=O)c2ccccc2C1C(=O)NCc1cccc(C(F)(F)F)c1Cl` (centres undefined), the IC50 is 0.0158 µM. In the case of `CCN1C(=O)CCC1(C)C(=O)NCc1ccc(Cl)cc1Cl` (centres undefined) it was 0.1 µM. Then `CC1(C(=O)NCc2ccc(Cl)cc2Cl)CCC(=O)N1C1CC1` (centres undefined), with 0.01 µM; and `O=C(NCc1ccc(Cl)cc1Cl)C1CCC(=O)N1C1CC1` (centres undefined), with 0.00316 µM. Turning to `CC(C)N1C(=O)CCC1(C)C(=O)NCc1ccc(Cl)cc1Cl` (centres undefined), the IC50 is 0.2 µM. `CCN1C(=O)CC[C@@H]1C(=O)NCc1cccc(C(F)(F)F)c1F`: the half-maximal inhibitory concentration (IC50) is 0.158 µM. Turning to `CCN1C(=O)CC[C@@H]1C(=O)NCc1ccc(F)cc1C(F)(F)F`, the half-inhibitory concentration (IC50) was 0.2 µM. Regarding `CCN1C(=O)CC[C@@H]1C(=O)NCc1cccc(Cl)c1F`, the IC50 was 0.794 µM.

Regarding `CCN1C(=O)CC[C@@H]1C(=O)NCc1ccc(F)c(F)c1Cl`, the IC50 was 0.2 µM. Regarding `CCN1C(=O)CC[C@@H]1C(=O)NCc1ccc(Cl)cc1C`, the IC50 was 0.126 µM. In the case of `CN1C(=O)CC[C@@H]1C(=O)NCc1ccc(F)cc1C(F)(F)F` it was 0.251 µM. Take `CN1C(=O)CC[C@@H]1C(=O)NCc1cccc(Cl)c1Cl`: the IC50 is 0.0631 µM.

With `O=C(NCc1ccc(F)cc1Cl)C1CCC(=O)N1C1CC1` (centres undefined), the 50% inhibitory concentration (IC50) is 0.02 µM. Then `O=C(NCc1ccc(F)cc1Cl)C1CC(=O)N(C2CC2)C1` (centres undefined), with 0.501 µM; and `CN1C(=O)CC[C@@H]1C(=O)NCc1cccc(C(F)(F)F)c1Cl`, with 0.0158 µM; and `Cc1c(Cl)cccc1CNC(=O)[C@H]1CCC(=O)N1C`, with 0.1 µM. Turning to `CC1=CC(=O)N(C2CC2)C1C(=O)NCc1ccc(Cl)cc1Cl` (centres undefined), the IC50 was 0.631 µM.

As for `Cc1c(CNC(=O)[C@@H]2CCC(=O)N2C)cccc1C(F)(F)F`, the IC50 was 0.00316 µM. Consider `CN1C(=O)CC[C@H]1C(=O)NCc1ccc(F)cc1Br`, for which the IC50 is 0.0398 µM. Take `CN1C(=O)CC[C@H]1C(=O)NCc1cccc(F)c1C(F)(F)F`: the IC50 is 0.2 µM.

On to `CCN1C(=O)CC[C@H]1C(=O)NCc1ccc(F)c(Cl)c1Cl`, for which the half-maximal inhibitory concentration (IC50) was 0.00316 µM. In the case of `O=C(NCc1cccc(C(F)(F)F)c1Cl)C1CCC(=O)N1C1CC1` (centres undefined) it was 0.00126 µM; in that of `CN1C(=O)CC[C@@H]1C(=O)NCc1cccc(C(F)(F)F)c1F`, 0.2 µM. `Cc1cc(Cl)cc(Cl)c1CNC(=O)[C@@H]1CCC(=O)N1C`: the IC50 was 0.00126 µM. Consider `CN1C(=O)CC[C@H]1C(=O)NCc1cccc2ccccc12`, for which the half-inhibitory concentration (IC50) was 0.00158 µM.

As for `CN1C(=O)CC[C@H]1C(=O)NCc1ccc(F)c(F)c1Cl`, the IC50 is 0.0398 µM.

Turning to `CCN1C(=O)C(C)(C)CC1C(=O)NCc1ccc(Cl)cc1Cl` (centres undefined), the 50% inhibitory concentration (IC50) is 0.0251 µM. Then `O=C(NCc1cccc(C(F)(F)F)c1Cl)[C@H]1CCC(=O)N1Cc1ccccc1`, with 0.0316 µM; and `CC(C)(C)CN1C(=O)CC[C@H]1C(=O)NCc1cccc(C(F)(F)F)c1Cl`, with 0.0251 µM.

With `O=C(NCc1cccc(C(F)(F)F)c1Cl)[C@H]1CCC(=O)N1C1CCCC1`, the concentration for half-maximal inhibition (IC50) is 0.1 µM. Take `CN1C(=O)CC(C)(C)C1C(=O)NCc1cccc(C(F)(F)F)c1Cl` (centres undefined): the IC50 is 0.1 µM. As for `CCC(C)N1C(=O)CC[C@@H]1C(=O)NCc1cccc(C(F)(F)F)c1Cl` (some centres undefined), the 50% inhibitory concentration (IC50) was 0.0631 µM. As for `CN1CC(C(=O)NCc2cccc(C(F)(F)F)c2Cl)CC1=O` (centres undefined), the half-maximal inhibitory concentration (IC50) is 0.0631 µM.

In the case of `O=C(NCc1cccc(C(F)(F)F)c1Cl)C1COCC(=O)N1Cc1ccccc1` (centres undefined), the IC50 was 0.251 µM. In the case of `O=C(NCc1ccc(Cl)cc1Cl)C1COCC(=O)N1Cc1ccccc1` (centres undefined) it was 0.501 µM; in that of `O=C(NCc1ccc(F)cc1Cl)C1COCC(=O)N1Cc1ccccc1` (centres undefined), 0.501 µM; in that of `CCN1C(=O)CC[C@H]1C(=O)NCc1cccc(C)c1C`, 0.1 µM. Then `CN1C(=O)CC[C@H]1C(=O)NCc1ccc(F)c(Cl)c1Cl`, with 0.0126 µM; and `CC(C)N1C(=O)CC[C@H]1C(=O)NCc1ccc(F)c(Cl)c1Cl`, with 0.00501 µM; and `Cc1c(Cl)cccc1CNC(=O)[C@@H]1CCC(=O)N1C(C)C`, with 0.0158 µM. In the case of `CC(C)N1C(=O)CC[C@H]1C(=O)NCc1cccc(C(F)(F)F)c1Cl` it was 0.002 µM; in that of `Cc1c(CNC(=O)[C@@H]2CCC(=O)N2C(C)C)cccc1C(F)(F)F`, 0.00398 µM.

In the case of `CC(C)N1C(=O)CC[C@H]1C(=O)NCc1cccc(Cl)c1Cl`, the IC50 was 0.02 µM.

Regarding `CC(C)N1C(=O)CC[C@H]1C(=O)NCc1ccc(F)c(F)c1Cl`, the IC50 was 0.02 µM. In the case of `CC(C)N1C(=O)CC[C@H]1C(=O)NCc1ccc(Cl)cc1Cl`, the concentration for half-maximal inhibition (IC50) was 0.00794 µM. Then `CN1CC(C(=O)NCc2ccc(Cl)cc2Cl)CC1=O` (centres undefined), with 0.158 µM; and `CCN1CC(C(=O)NCc2ccc(Cl)cc2Cl)CC1=O` (centres undefined), with 0.126 µM. Turning to `CCN1CC(C(=O)NCc2cccc(C(F)(F)F)c2Cl)CC1=O` (centres undefined), the half-inhibitory concentration (IC50) is 0.0501 µM. Then `CC(C)CN1CC(C(=O)NCc2cccc(C(F)(F)F)c2Cl)CC1=O` (centres undefined), with 0.0631 µM. For `O=C(NCc1ccc(Cl)cc1Cl)C1CC(=O)N(C2CC2)C1` (centres undefined), the half-inhibitory concentration (IC50) was 0.126 µM. Take `O=C(NCc1cccc(C(F)(F)F)c1Cl)C1CC(=O)N(C2CC2)C1` (centres undefined): the 50% inhibitory concentration (IC50) was 0.0316 µM. On to `CCN1C(=O)CC[C@H]1C(=O)NCc1ccccc1Br`, for which the IC50 is 0.251 µM. In the case of `CCN1C(=O)CC[C@H]1C(=O)NCc1c(F)cccc1Cl` it was 1 µM; in that of `CCN1C(=O)CC[C@H]1C(=O)NCc1ccc(Cl)cc1C`, 0.0251 µM.

Regarding `CCN1C(=O)CC[C@H]1C(=O)NCc1c(C)cc(C)cc1C`, the concentration for half-maximal inhibition (IC50) is 0.0501 µM. In the case of `CCN1C(=O)CC[C@H]1C(=O)NCc1c(F)ccc(F)c1Cl` it was 0.794 µM; in that of `CN1C(=O)CC[C@H]1C(=O)NCc1ccc(Cl)cc1Cl`, 0.0126 µM. On to `CCN1C(=O)[C@H](Cc2ccccc2)C[C@H]1C(=O)NCc1ccc(F)cc1Cl`, for which the concentration for half-maximal inhibition (IC50) was 0.1 µM. Then `CCN1C(=O)CC[C@H]1C(=O)NCc1ccc(Cl)c(Cl)c1`, with 0.251 µM.

On to `CCN1C(=O)CC[C@H]1C(=O)NCc1ccc(F)cc1C(F)(F)F`, for which the IC50 is 0.0398 µM. Turning to `CCN1C(=O)CC[C@H]1C(=O)NCc1ccc(C)cc1C`, the IC50 was 0.158 µM. `CCN1C(=O)CC[C@H]1C(=O)NCc1c(C)cccc1Cl`: the half-inhibitory concentration (IC50) was 0.1 µM. With `CCN1C(=O)CC[C@H]1C(=O)NCc1c(F)ccc(C)c1Cl`, the half-maximal inhibitory concentration (IC50) was 0.158 µM. Then `CCN1C(=O)CC[C@H]1C(=O)NCc1c(Cl)ccc(C)c1F`, with 0.794 µM. For the molecule `CCN1C(=O)CC[C@H]1C(=O)NCc1cccc(Cl)c1C`, the IC50 is 0.0158 µM. Take `CCN1C(=O)CC[C@H]1C(=O)NCc1cccc(F)c1F`: the half-inhibitory concentration (IC50) is 0.398 µM. Turning to `CCN1C(=O)CC[C@H]1C(=O)NCc1c(Cl)cccc1Cl`, the IC50 is 0.1 µM. Consider `CCN1C(=O)CC[C@H]1C(=O)NCc1ccc(F)c(C(F)(F)F)c1`, for which the IC50 is 0.0794 µM. For `CCN1C(=O)CC[C@H]1C(=O)NCc1ccc(Cl)c(C(F)(F)F)c1`, the IC50 is 0.0794 µM.

Consider `CCN1C(=O)CC[C@H]1C(=O)NCc1ccc(C(F)(F)F)cc1`, for which the IC50 is 0.2 µM. In the case of `CCN1C(=O)CC[C@H]1C(=O)NCc1ccc(Br)cc1F` it was 0.0398 µM; in that of `CCN1C(=O)CC[C@H]1C(=O)NCc1ccccc1C`, 0.794 µM. In the case of `CCN1C(=O)CC[C@H]1C(=O)NCc1ccc(F)c(F)c1Cl` it was 0.00794 µM.

With `CCN1C(=O)OC[C@@H]1C(=O)NCc1ccc(F)cc1Cl`, the half-maximal inhibitory concentration (IC50) was 0.316 µM.

For the molecule `CCN1C(=O)OC[C@H]1C(=O)NCc1ccc(F)cc1Cl`, the IC50 was 0.1 µM. In the case of `CC1(C(=O)NCc2ccc(Cl)cc2Cl)CCC(=O)N1C1CCC1` (centres undefined) it was 0.1 µM; in that of `CCN1C(=O)CC[C@H]1C(=O)NCc1cccc(C(F)(F)F)c1F`, 0.0251 µM; in that of `CCN1C(=O)CC[C@H]1C(=O)NCc1cccc(Cl)c1F`, 0.0794 µM.
